From patent publication US20020025508A1, “Process for finding a protease inhibitor” (priority 2000, published 2002)
Residues, ends and D or L forms follow the SMILES beside them. *: point of attachment. Cbz = O=C(OCc1ccccc1)*

Assays:
Type in all cases: cell-based, human
[1] = tested on: γ-secretase; assay: γ-secretase HTS luciferase reporter assay (Aβ-KKK/Gal4 substrate, SteadyGlo); conditions: different concentrations; for inhibition of Aβ formation (luciferase signal): cell clones Aβ-KKK-ER/40, 59, 65 and Aβ-KKK/52 (also Aβ-KKK/40 for substance B), overnight
Text: H4 neuroglioma cells (Accession Number HTB 148 at the American Type Culture Collection, Manassas, Va., USA) were stably transfected under standard conditions with the reporter construct pFRLuc (Stratagene) which carries the gene for luciferase which is under the control of a promoter containing the Gal4 DNA binding domain. […] In order to prepare the Aβ-KKK/Gal4 construct, a sequence which contained the N-terminal signal sequence of APP and the first 55 amino acids of Aβ (Shoji, M. et al., Science, 1992; 158:126-129) was attached to the Gal4 coding sequence (Laughan, A. and Gesteland, R., Molec. Cell Biol., 1984, 4:260-267) by genetic engineering methods and cloned into the expression vector pcDNA3neo (Invitrogen). This construct was designated Aβ-KKK/Gal4. In order to insert an ER-retention signal in the substrate of the γ-secretase, the last nucleotides of the Gal4 were modified by genetic engineering methods so that they coded for amino acids KKLI. This construct was named Aβ-KKK-ER/Gal4. The cell clone obtained as described above was used for the second stable transfection with pcDNA3/Aβ-KKK/Gal4 or pcDNA3/Aβ-KKK-ER/Gal4 and the selection was carried out with neomycin under standard conditions (Sambrook and Maniatis, Molecular Cloning: A Laboratory Manual, Cold Spring Harbor Laboratory, Cold Spring Harbor, N.Y., 1989). Individual neomycin-resistant cell clones were tested for expression of luciferase. The clones with the highest expression were used for the substance analyses. All the transfections were carried out using the Fugene transfection system of Boehringer Mannheim in accordance with the manufacturer's instructions.
The doubly stable HTS cell line is seeded onto a 96/384 microtitre plate. When the cells achieved confluence they are incubated with the test substance in question for a specified length of time.
By the presence of an endogenous or exogenous γ-secretase activity in the H4 cells, the substrate (Aβ-KKK/Gal4) is cleaved proteolytically, whereupon the transactivator Gal4 can detach itself from the membrane and enter the cell nucleus. In the cell nucleus, Gal4 binds to the Gal4 DNA binding domain of the reporter construct and thus activates the expression of the luciferase. When a specific γ-secretase inhibitor is present the substrate cannot be cleaved and Gal4 remains bound to the substrate on the cell membrane, leading to a reduction and even total inhibition of the luciferase activity.
Cells are seeded onto 96/[…] well plates in DMEM whole medium (10% FCS, 1% glutamine, 1% penicillin/streptomycin) in a dilution of 1:5. […] Then, the luminescence is measured. […]

[2] = tested on: Aβ40 and Aβ42 secreted by U373/APP751 cell line; assay: ELISA of extracellular Aβ40 and Aβ42 secreted by U373/APP751 cells
Protocol: Substance A was also active in a cellular test system in which the extracellular content of Aβ40 and Aβ42 secreted by the U373 cell line (U373: ATCC No. HTB 14) was determined. This cell line, U373/APP751, is an astrocytoma cell line which overexpresses human APP751 and secretes large amounts of Aβ40 (about 1000 pg/ml/4 hours with 5×10^7 cells in 15 ml of medium) and Aβ42 (about 1000 pg/ml/4 hours with 5×10^7 cells in 15 ml of medium). The measurement is carried out by ELISA (Steiner, H. et al., J. Biol. Chem, 1998, 273:32322-32331).

[3] = tested on: HTS test cell lines Aβ-KKK-ER/59 and Aβ-KKK/52 (H4 cells); assay: Alamar Blue vitality (cytotoxicity) test; conditions: clones Aβ-KKK-ER/59 and Aβ-KKK/52, entire range of concentrations, parallel to luciferase test
Protocol: A possible toxic effect of the BFA (in different concentrations) on the cells was investigated using an Alamar Blue test (see below) which was carried out in parallel to the luciferase test.
Alamar Blue (Messrs. Biosource International, VE=100 ml, Cat.No. DAL 1100 (AL-01 -100)) was sterile-filtered. The seeding of the cells and substance incubation were carried out as in Example 1.
The Alamar blue incubation was carried out parallel to the luciferase test.
Alamar blue was diluted to 5% with whole medium (DMEM m 4.5 g/l glucose+10% FCS+1% glutamine+1% Pen/Strep). The medium was suction filtered. The cells were washed once with medium or PBS. One hundred microliters of (5%) Alamar blue were added (96 well plate) and a plate was incubated for 1 hour in the incubator at 37° C. and in 5% CO2. Fluorimetric measurement was carried out at an input wavelength of 544 nm, an emission wavelength of 590 nm and a measuring time of 0.3 s/well. The results are given as a percentage of the control.

SMILES | inhibition of Aβ formation (luciferase signal) [1] | Aβ40 secretion [2] | Aβ42 secretion [2] | BFA effect on luciferase signal ([1]; cell clone Aβ-KKK/52 (without ER retention signal), 6 hours) | loss of vitality (toxic effect on the cells) [3]
CCCCNC(=O)[C@@H](C[C@H](O)[C@H](CC1CCCCC1)NCCCC(C)C)C(C)C [Substance A] | inhibits Aβ formation in a manner dependent on concentration | greatly reduced in concentration-dependent manner | increased at sub-inhibitory doses and then also inhibited at higher doses | – | –
C[C@H]1CCC/C=C/[C@@H]2C[C@H](O)C[C@H]2[C@H](O)/C=C/C(=O)O1 [BFA, Brefeldin A, reference compound] | – | – | – | clear BFA effect could be seen | No loss of vitality
CC(C)C(NC(=O)OCc1ccccc1)C(=O)NC(C=O)Cc1ccccc1 (stereo not drawn) [Substance B] (Cbz-Val-Phe-aldehyde; configuration not given here) | does not inhibit Aβ formation in concentration-dependent manner | – | – | – | –
Cc1nccn1Cc1ccccn1 [Substance C] | does not inhibit Aβ formation in concentration-dependent manner | – | – | – | –
